Laboratory results taken from patent US9700539B2, “Therapeutic application of (Boc)2-creatine” (UNIVERSITA' DEGLI STUDI DI GENOVA, priority 2013, dated 2017).
One block for each compound: values may come before it.

Assays:
creatine kinase enzyme [1] = details: literature; cited from earlier work
[2] = tested on: slices of mouse hippocampus; test: Incubation of mouse hippocampus slices with (Boc)2-creatine; assay type: cell-based; details: 2 mM, 3 hours at 36° C.
Description: Of course, high concentrations of (Boc)2-creatine will have a cytotoxic effect. […] Since tumor development is due to an uncontrolled cellular progression, a molecule which can control the main source of cell energy gives a valid means of controlling cell proliferation.

creatine kinase enzyme [3] = test: Creatine kinase activity by the coupled enzymatic method (pyruvate kinase/lactate dehydrogenase, NADH at 340 nm); assay type: biochemical; details: 2 mM creatine
Protocol: The activity of the creatine kinase enzyme was measured by the enzymatic coupling method (Bergmeyer 1974). In this method, the ATP hydrolysis is coupled with the NADH oxidation, which is monitored, by means of a spectrophotometer, by the decrease in absorbance at 340 nm (ε340=6.22 mM^−1 cm^−1).
The dosage of the creatine kinase was carried out with the spectrophotometer at 340 nm, following the oxidation of the pyridine coenzyme NADH, which is expressed as a decrease in the absorbance. To be able to carry out the dosage, the reaction of the creatine kinase was combined with two other enzymatic reactions catalyzed respectively by the pyruvate kinase and by the lactate dehydrogenase (Bergmeyer 1974). This method, defined as the coupled method, is necessary because both the substrata and the products of the creatine kinase are not directly visible to the spectrophotometer. In particular, the dosage solution contained the following compounds: 100 mM Tris HCl, pH 7.5, 2 mM MgCl2, 75 mM KCl, 2 mM ATP, 0.5 mM phosphoenolpyruvate, 0.16 mM NADH, 10 IU of pyruvate kinase and of lactate dehydrogenase, in a final volume of 1 ml. The reaction begins by the addition of 2 mM of creatine. The dosage is carried out continuously, i.e. the enzyme activity is followed in real time during the development of the reaction. The dosage trend is monitored by a register connected to the spectrophotometer. The reactions take place in the cuvette, as illustrated in FIG. 1.
To verify the inhibiting effect of (Boc)2-creatine, concentrations between 0.25 and 2 mM were added to the dosage solution, before the addition of the creatine.
To identify the type of inhibition, the maximum kinetic speed (Vmax) and the Michaelis Menten constant (Km) were measured. To be able to carry out the experiment, for each concentration of (Boc)2-creatine, the dosage was carried out in the presence of different substratum concentrations (creatine). The data were analyzed with the Lineweaver-Burk double-reciprocal plot.

[4] = tested on: tumor cell lines that express a high level of creatine kinase; details: literature; cited from earlier work

SMILES: CCCCCC(CCCC)=C([Te]c1ccccc1)C(=O)c1ccccc1 [3-butyl-1-phenyl-2-(phenyltelluro)oct-en-1-one]
type of inhibition of creatine kinase (creatine kinase enzyme [1]): competitive inhibitor

inhibition of the creatine kinase (creatine kinase enzyme [3]; 0.25 mM (Boc)2-creatine): 21% | inhibition of the creatine kinase (creatine kinase enzyme [3]; 0.5 mM (Boc)2-creatine): 39% | inhibition of the creatine kinase (creatine kinase enzyme [3]; 0.75 mM (Boc)2-creatine): 75% | maximum inhibition of the creatine kinase (creatine kinase enzyme [3]; 1 mM (Boc)2-creatine): 95%
SMILES: CN(CC(=O)O)C(=NC(=O)OC(C)(C)C)NC(=O)OC(C)(C)C [(Boc)2-creatine]
cytotoxic effect on hippocampus slices (vital signs) [2]: show no vital signs

SMILES: NC(=O)CI [Iodoacetamide]
type of inhibition of creatine kinase (creatine kinase enzyme [1]): complete and irreversible inhibition

SMILES: N=C1NCCN1CC(=O)O [cyclocreatine, 1-carboxymethyl-2-iminoimidazolidine]
inhibition of tumor cell lines [4]: suitable for inhibiting tumor cell lines that express a high level of creatine kinase
